Laboratory results taken from ChEMBL document CHEMBL4043116, “KBE009: An antimalarial bestatin-like inhibitor of the Plasmodium falciparum M1 aminopeptidase discovered in an Ugi multicomponent reaction-derived peptidomimetic library” (Bioorg Med Chem, 2017).
pIC50, pKi: −log10 of the molar value. The source made the active and inactive calls. Unless noted, no cut-off for these calls is given here.

Experiments:
Plasmodium falciparum [1] = assay: Inhibition of recombinant Plasmodium falciparum M1 aminopeptidase assessed as residual activity at 20 uM using Ala-AMC as substrate pretreated for 30 mins followed by substrate addition by fluorescence assay relative to control
Plasmodium falciparum [2] = assay: Antimalarial activity against synchronized ring stage of […] Plasmodium falciparum 3D7 infected in human erythrocytes assessed as parasite growth at 25 uM after 72 hrs by YOYO-1 staining based flow cytometric analysis relative to control; format: functional
Plasmodium falciparum [3] = assay: Antimalarial activity against synchronized ring stage of […] Plasmodium falciparum 3D7 infected in human erythrocytes assessed as parasite growth at 25 uM after 48 hrs by Giemsa staining based microscopic analysis; format: functional, cell-based
Erythrocyte = assay: Hemolytic activity against human erythrocytes at 25 uM measured after 48 hrs; format: ADME, cell-based
Plasmodium falciparum [4] = assay: (§1) Antimalarial activity against asynchronized chloroquine-resistant Plasmodium falciparum FcB1/Columbia assessed as reduction in [3H]-hypoxanthine incorporation by measuring parasite growth at 50 uM pretreated for 24 hrs followed by [3H]-hypoxanthine addition after 24 hrs by microbeta scintillation counting analysis relative to control; format: functional; parameters: scale not given: the % may be the effect or the level left
Plasmodium falciparum [5] = assay: as §1, with “5” for “50”; format: functional; parameters: scale not given: the % may be the effect or the level left
[6] = Inhibition of recombinant Plasmodium falciparum M1 aminopeptidase using Ala-AMC as substrate pretreated for 30 mins followed by substrate addition by fluorescence assay
Plasmodium falciparum [7] = assay: Antimalarial activity against synchronized ring stage of […] Plasmodium falciparum 3D7 infected in human erythrocytes after 48 hrs by Giemsa staining based microscopic analysis; format: functional, cell-based; details: for pIC50: 3D7, 48 h
Plasmodium falciparum [8] = assay: Antimalarial activity against asynchronized chloroquine-resistant Plasmodium falciparum FcB1/Columbia assessed as reduction in [3H]-hypoxanthine incorporation pretreated for 24 hrs followed by [3H]-hypoxanthine addition after 24 hrs by microbeta scintillation counting analysis; format: functional
[9] = target: T1, Aminopeptidase N (Sus scrofa) (UniProt P15145); assay: Inhibition of porcine kidney cortex aminopeptidase N up to 100 uM using Leu-p-nitroanilide as substrate […]
T1 sequence (whole entry): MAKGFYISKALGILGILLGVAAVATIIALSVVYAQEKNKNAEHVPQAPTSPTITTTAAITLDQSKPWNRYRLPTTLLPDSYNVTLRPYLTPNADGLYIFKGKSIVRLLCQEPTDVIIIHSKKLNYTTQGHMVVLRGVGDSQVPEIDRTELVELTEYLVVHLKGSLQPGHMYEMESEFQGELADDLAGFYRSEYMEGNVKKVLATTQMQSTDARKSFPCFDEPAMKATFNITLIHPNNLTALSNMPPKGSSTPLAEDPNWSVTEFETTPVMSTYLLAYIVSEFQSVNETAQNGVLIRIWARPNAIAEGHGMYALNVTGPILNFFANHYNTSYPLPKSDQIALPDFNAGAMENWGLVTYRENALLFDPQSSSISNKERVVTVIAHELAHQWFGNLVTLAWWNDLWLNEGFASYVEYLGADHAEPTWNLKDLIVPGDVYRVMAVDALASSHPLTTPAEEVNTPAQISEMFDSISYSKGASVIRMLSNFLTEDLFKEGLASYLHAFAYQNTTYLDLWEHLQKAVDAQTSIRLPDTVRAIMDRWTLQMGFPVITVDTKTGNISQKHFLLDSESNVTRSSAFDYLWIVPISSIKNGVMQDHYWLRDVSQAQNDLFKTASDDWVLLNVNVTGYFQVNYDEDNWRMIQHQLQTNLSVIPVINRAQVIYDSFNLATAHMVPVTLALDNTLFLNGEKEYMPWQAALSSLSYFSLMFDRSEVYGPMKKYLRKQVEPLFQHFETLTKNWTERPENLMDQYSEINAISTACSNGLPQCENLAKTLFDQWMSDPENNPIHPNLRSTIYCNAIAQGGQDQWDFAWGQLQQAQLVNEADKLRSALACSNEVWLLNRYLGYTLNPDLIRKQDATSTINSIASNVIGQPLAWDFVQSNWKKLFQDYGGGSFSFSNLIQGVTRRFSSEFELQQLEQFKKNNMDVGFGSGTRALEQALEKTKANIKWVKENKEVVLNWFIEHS

[10] = Selectivity index, ratio of Ki for recombinant Plasmodium falciparum M1 aminopeptidase to Ki for porcine kidney cortex aminopeptidase N
HUVEC = assay: Cytotoxicity against HUVEC assessed as reduction in cell viability up to 200 uM by MTT assay; format: cell-based; details: human
[11] = Inhibition of Plasmodium falciparum M1 aminopeptidase using Ala-AMC as substrate by spectrofluorimetric assay
Aminopeptidase N = target: T2, Aminopeptidase N (Sus scrofa, UniProt P15145); assay: Inhibition of porcine kidney cortex aminopeptidase N using Leu-p-nitroanilide as substrate pretreated for 30 mins followed by substrate addition […]
T2 sequence (P15145 whole entry): T1 sequence (whole entry)

Plasmodium falciparum [12] = assay: Inhibition of Plasmodium falciparum M1 aminopeptidase at 20 uM using Arg-AMC as substrate measured after 5 mins by fluorescence assay relative to control

SMILES	Activity (Plasmodium falciparum [1]) [%]	Activity (Plasmodium falciparum [2]) [%]	Activity (Plasmodium falciparum [3])	Activity (Erythrocyte)	Activity (Plasmodium falciparum [4])	Activity (Plasmodium falciparum [5])	pKi [6]	inhibition (Plasmodium falciparum [7])	pIC50 (Plasmodium falciparum [8])	pIC50 (Plasmodium falciparum [7])	inhibition [9]	Ratio Ki [10]	Activity (HUVEC)	pIC50 [11]	pKi (Aminopeptidase N)	inhibition (Plasmodium falciparum [12]) [%]
CC(C)C[C@H](NCC(=O)NC1CCCCC1)C(=O)O	96	60	Active	Non-Toxic	69 - 90%	97 - 99%	–	–	–	–	–	–	–	–	–	–
O=C(CN[C@@H](Cc1ccccc1)C(=O)O)NCc1ccccc1	23	38	Active	Non-Toxic	–	–	6.05	Active	–	–	–	–	–	–	–	–
CC(C)C[C@@H](C(=O)O)N(C(=O)[C@@H](N)Cc1ccccc1)C(C(=O)NCc1ccccc1)c1ccco1 (stereo partly drawn)	48	54	Active	Non-Toxic	2.5 - 4.5%	83.5 - 93.5%	6.40	–	4.80	4.74	inactive	> 250	Non-Toxic	4.09	–	–
CC(C)C[C@@H](C(=O)O)N(C(=O)[C@@H](N)Cc1ccccc1)C(C(=O)NC(C)(C)C)c1ccco1 (stereo partly drawn)	42	96	Active	Non-Toxic	81.5 - 95%	94.5 - 99%	–	–	–	–	–	–	–	–	–	–
CC[C@H](C)[C@H](NCC(=O)NC1CCCCC1)C(=O)O	100	93	Active	Non-Toxic	1.5 - 4.5%	79.5 - 86.5%	–	–	–	–	–	–	–	–	–	–
CC(C)C[C@H](N)C(=O)N(CC(=O)NCc1ccccc1)[C@H](C(=O)O)C(C)C	85	65	Active	Non-Toxic	67 - 78%	76.5 - 79%	–	–	–	–	–	–	–	–	–	–
CC(C)C[C@@H](C(=O)O)N(C(=O)[C@@H](N)Cc1ccccc1)C(C(=O)NCc1ccccc1)c1ccccc1 (stereo partly drawn)	83	66	Active	Non-Toxic	39 - 55.5%	65 - 90%	–	–	–	–	–	–	–	–	–	–
O=C(CN1CCC[C@H]1C(=O)O)NC1CCCCC1	98	82	Active	Non-Toxic	–	–	–	–	–	–	–	–	–	–	–	–
CC(C)C[C@H](NC(C(=O)NC1CCCCC1)c1ccccc1)C(=O)O (stereo partly drawn)	40	82	Active	Non-Toxic	15.5 - 23%	85.5 - 93%	–	–	–	–	–	–	–	–	–	–
CC(C)C[C@H](N)C(=O)N(CC(=O)NC(C)(C)C)[C@@H](Cc1ccccc1)C(=O)O	61	87	Active	Non-Toxic	71 - 83.5%	92.5 - 99%	–	–	–	–	–	–	–	–	–	–
CC(C)C[C@H](NC(C(=O)NC1CCCCC1)c1cccnc1)C(=O)O (stereo partly drawn)	94	96	Active	Non-Toxic	–	–	–	–	–	–	–	–	–	–	–	–
O=C(CN[C@@H](Cc1c[nH]c2ccccc12)C(=O)O)NC1CCCCC1	29	43	Active	Non-Toxic	31 - 39.5%	83 - 92.5%	5.37	–	4.43	4.60	–	5.6	–	–	4.62	–
CC(C)C[C@H](NC(=O)[C@@H](O)[C@H](N)Cc1ccccc1)C(=O)O [UBENIMEX]	1.2	36	–	Non-Toxic	–	–	> 6.80	–	5.48	4.68	–	–	–	> 6.51	–	50
